Reference: patent US9481676B2, “Azepino[4,5-B]indoles and methods of use” (Medivation Technologies, Inc., priority 2008, dated 2016)

Target: T1, human recombinant adrenergic α2A receptor (Homo sapiens, UniProt P08913)
T1 construct: expressed in transfected cells; host or cells: insect Sf9 cells
T1 sequence (P08913 1-465): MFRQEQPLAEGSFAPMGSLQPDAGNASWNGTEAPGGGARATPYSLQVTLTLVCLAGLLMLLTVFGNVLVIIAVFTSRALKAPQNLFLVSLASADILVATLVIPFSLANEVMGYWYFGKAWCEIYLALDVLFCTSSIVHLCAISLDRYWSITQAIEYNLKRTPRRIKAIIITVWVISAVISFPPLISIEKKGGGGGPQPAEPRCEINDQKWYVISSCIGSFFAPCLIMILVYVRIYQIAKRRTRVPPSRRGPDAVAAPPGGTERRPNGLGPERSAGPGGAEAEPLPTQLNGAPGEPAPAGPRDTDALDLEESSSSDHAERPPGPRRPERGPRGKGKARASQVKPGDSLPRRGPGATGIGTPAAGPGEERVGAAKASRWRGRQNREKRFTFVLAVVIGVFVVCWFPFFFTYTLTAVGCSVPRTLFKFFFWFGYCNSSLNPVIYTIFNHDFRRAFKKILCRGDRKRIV
Experiment: Adrenergic alpha2A radioligand binding ([3H]MK-912)
Settings: compound at 1 μM; read-out: Adrenergic (1 μM) α2A, percent inhibition of specific binding
How it was run: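 Membranes of Sf9 cells expressing human recombinant α2A receptor were incubated with compound and 1 nM [3H]MK-912 for 60 min at 25 °C in 50 mM Tris-HCl pH 7.4, 12.5 mM MgCl2, 2 mM EDTA. Nonspecific binding: 10 μM WB-4101.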

CN1CCc2c(n(CCc3ccc(C(F)(F)F)nc3)c3ccc(Cl)cc23)CC1 [Compound No. 1, 9-chloro-6-(2-(6-(trifluoromethyl)pyridin-3-yl)ethyl)-1,2,3,4,5,6-hexahydro-3-methylazepino[4,5-b]indole]
inhibition at 1 µM: 90%

C/C(=C\n1c2c(c3cc(Cl)ccc31)CCN(C)CC2)c1ccc(F)cc1 [Compound No. 2, 9-chloro-6-((E)-2-(4-fluorophenyl)prop-1-enyl)-1,2,3,4,5,6-hexahydro-3-methylazepino[4,5-b]indole]
inhibition at 1 µM: 96%

Cc1cncc(CCn2c3c(c4cc(Cl)ccc42)CCN(C)CC3)c1 [Compound No. 3, 9-chloro-3-methyl-6-(2-(5-methylpyridin-3-yl)ethyl)-1,2,3,4,5,6-hexahydroazepino[4,5-b]indole]
inhibition at 1 µM: 91%

CC1CCN(C(=O)Cn2c3c(c4cc(Cl)ccc42)CCN(C)CC3)CC1 [Compound No. 76, 2-(9-chloro-2,3,4,5-tetrahydro-3-methylazepino[4,5-b]indol-6(1H)-yl)-1-(4-methylpiperidin-1-yl)ethanone]
inhibition at 1 µM: 7%

COc1ccc(C(O)Cn2c3c(c4cc(Cl)ccc42)CCN(C)CC3)cc1OC (stereo not drawn) [Compound No. 77, 2-(9-chloro-2,3,4,5-tetrahydro-3-methylazepino[4,5-b]indol-6(1H)-yl)-1-(3,4-dimethoxyphenyl)ethanol]
inhibition at 1 µM: 85%

COc1ccc(/C=C/n2c3c(c4cc(Cl)ccc42)CCN(C)CC3)cc1 [Compound No. 78, 6-(4-methoxystyryl)-9-chloro-1,2,3,4,5,6-hexahydro-3-methylazepino[4,5-b]indole]
inhibition at 1 µM: 83%

Cc1ccc2c(c1)c1c(n2CC(=O)Nc2ccccc2)CCN(C)CC1 [Compound No. 79, 2-(2,3,4,5-tetrahydro-3,9-dimethylazepino[4,5-b]indol-6(1H)-yl)-N-phenylacetamide]
inhibition at 1 µM: 17%

C=C(Cn1c2c(c3cc(Cl)ccc31)CCN(C)CC2)c1ccc(F)cc1 [Compound No. 82, 9-chloro-6-(2-(4-fluorophenyl)allyl)-3-methyl-1,2,3,4,5,6-hexahydroazepino[4,5-b]indole]
inhibition at 1 µM: 96%

CN1CCc2c(n(/C=C/c3ccccc3F)c3ccc(Cl)cc23)CC1 [Compound No. 83, (E)-9-chloro-6-(2-fluorostyryl)-3-methyl-1,2,3,4,5,6-hexahydro azepino[4,5-b]indole]
inhibition at 1 µM: 99%

C/C(=C/n1c2c(c3cc(Cl)ccc31)CCN(C)CC2)c1ccc(Cl)cc1Cl [Compound No. 152, (Z)-9-chloro-6-(2-(2,4-dichlorophenyl)prop-1-enyl)-1,2,3,4,5,6-hexahydro-3-methylazepino[4,5-b]indole]
inhibition at 1 µM: 93%

COc1ccc(/C=C/n2c3c(c4cc(Cl)ccc42)CCN(C)CC3)cc1F [Compound No. 158, (E)-6-(3-fluoro-4-methoxystyryl)-9-chloro-1,2,3,4,5,6-hexahydro-3-methylazepino[4,5-b]indole]
inhibition at 1 µM: 99%

C/C(=C/n1c2c(c3cc(C)ccc31)CCN(C)CC2)c1ccc(Cl)cc1Cl [Compound No. 174, (Z)-6-(2-(2,4-dichlorophenyl)prop-1-enyl)-1,2,3,4,5,6-hexahydro-3,9-dimethylazepino[4,5-b]indole]
inhibition at 1 µM: 101%

COc1ccc(/C=C/n2c3c(c4cc(C)ccc42)CCN(C)CC3)cc1F [Compound No. 180, (E)-6-(3-fluoro-4-methoxystyryl)-1,2,3,4,5,6-hexahydro-3,9-dimethylazepino[4,5-b]indole]
inhibition at 1 µM: 99%

Cc1ccc2c(c1)c1c(n2CC(=O)N2CCNCC2)CCN(C)CC1 [Compound No. 224, 2-(3,9-dimethyl-2,3,4,5-tetrahydroazepino[4,5-b]indol-6(1H)-yl)-1-(piperazin-1-yl)ethanone]
inhibition at 1 µM: 8%

Cc1ccc2c(c1)c1c(n2CC(=O)N2CCC(C)CC2)CCN(C)CC1 [Compound No. 225, 2-(3,9-dimethyl-2,3,4,5-tetrahydroazepino[4,5-b]indol-6(1H)-yl)-1-(4-methylpiperidin-1-yl)ethanone]
inhibition at 1 µM: 0%

COc1ccc(/C=C/n2c3c(c4cc(Cl)ccc42)CCN(C)CC3)cc1OC [Compound No. 226, (E)-9-chloro-6-(3,4-dimethoxystyryl)-3-methyl-1,2,3,4,5,6-hexahydroazepino[4,5-b]indole]
inhibition at 1 µM: 93%

COc1ccc(C(O)Cn2c3c(c4cc(C)ccc42)CCN(C)CC3)cc1OC (stereo not drawn) [Compound No. 227, 1-(3,4-dimethoxyphenyl)-2-(3,9-dimethyl-2,3,4,5-tetrahydroazepino[4,5-b]indol-6(1H)-yl)ethanol]
inhibition at 1 µM: 70%

CN1CCc2c(n(/C=C/c3ccccc3)c3ccc(Cl)cc23)CC1 [Compound No. 228, (E)-9-chloro-3-methyl-6-styryl-1,2,3,4,5,6-hexahydroazepino[4,5-b]indole]
inhibition at 1 µM: 102%
